Assay results published in patent publication US20090227507A1, “Angiotensin (1-7) Dosage Forms and Uses Thereof” (UNIVERSITY OF SOUTHERN CALIFORNIA, priority 2008, published 2009).

Experiments:
Assay type in all cases: in vivo, human
[1] = system: CD3 cells in peripheral blood; assay: Flow cytometry of peripheral blood, CD3 lymphocytes; USB003 SC once daily for 7 days in healthy men; set-up: key to Subjects with shift, Absolute CD3, N-L (normal to low) / Subjects with shift, Absolute CD3, N-H (normal to high) / Subjects with shift, Absolute CD3, L-N (low to normal) / Subjects with shift, Absolute CD3, H-N (high to normal): — signifies subject with no shift from baseline; conditions: for CD3, Absolute, Mean at Baseline: Baseline (Day 1)
Description: (§1) • Single-center, randomized, double-blind, placebo-controlled, 2 cohort dose-escalation trial of once daily dosing over a 7-day period (7 doses total): • Cohort 1: 2 subjects treated with placebo and 8 subjects treated with 200 μg/kg USB003 (A(1-7)) • Cohort 2: 2 subjects treated with placebo and 8 subjects treated with 300 μg/kg USB003 • For each cohort, there was a Screening Period, Treatment Phase, Follow-up Period, and Study Termination or Early Withdrawal Day. Subjects were confined to the study unit during the Treatment Phase. • Cohort 2 was treated approximately 1 week after completion of the Treatment Phase for Cohort 1 to allow time for the assessment of safety and tolerability in the first cohort.
(§2) Pharmacological Effect: The following evaluations (under efficacy and safety in the protocol) were performed: • Effects on the number of mature blood cells: • 1. CBC (with differential), platelet count, reticulocyte count. • Effects on early hematopoietic progenitor cells and mature lymphocyte subsets in the periphery: • 1. Flow cytometry to evaluate frequency of peripheral blood progenitor cells (eg, CD34^+) and lymphocyte subsets (eg, CD3, CD4, CD8) in peripheral blood. • 2. Collection of blood for later possible culture for progenitor cells (eg, colony forming units-granulocyte/macrophage [CFU-GM]) to evaluate potential effects on CD34^+ hematopoietic progenitor cells in peripheral blood. • 3.
(§3) The effect of USB003 on the number of mature blood cells was assessed by the complete blood count with differential, platelet and reticulocyte counts. The effects on early hematopoietic progenitor cells and mature lymphocyte subsets in the periphery were assessed by flow cytometry. In addition, blood was collected and processed to enable culture of progenitors at a later time.
(§4) Red blood cell (RBC) count, RBC indices, white blood cell count (WBC) with differential, reticulocyte count, platelet count, hemoglobin (Hb), hematocrit (Hct), plasma hemoglobin, peripheral flow cytometry, including CD34^+, flow cytometry for enumeration of CD3, CD4, and CD8 lymphocytes, and culture for progenitor cells in peripheral blood including colony-forming units-granulocyte/macrophage (CFU-GM).

[2] = system: CD4 cells in peripheral blood; assay: Flow cytometry of peripheral blood, CD4 lymphocytes; USB003 SC once daily for 7 days in healthy men; set-up: key to Subjects with shift, Absolute CD4, N-L (normal to low) / Subjects with shift, Absolute CD4, N-H (normal to high) / Subjects with shift, Absolute CD4, H-N (high to normal) / Subjects with shift, Absolute CD4, L-N (low to normal): — signifies subject with no shift from baseline; conditions: for CD4, Absolute, Mean at Baseline: Baseline (Day 1)
Description: as §1, §2, §3, §4

[3] = Vital signs (blood pressure, pulse rate, respiration rate, oral temperature) in healthy men; conditions: for oral body temperature, Subject 042 / oral body temperature, Subject 046 / oral body temperature, Subject 053 / oral body temperature, Subject 055: 300 μg/kg
Description: Safety assessments during the study period included vital sign measurement (systolic [SBP] and diastolic [DBP] blood pressure, heart rate [HR], respiratory rate [RR] in the sitting position, and oral temperature), clinical chemistry, hematology, urinalysis, 12-lead electrocardiogram (ECG) in the supine position, and AE monitoring. Clinical chemistry/hematology samples were drawn within a 30-minute period prior to dosing on selected dosing days.
Vital signs were measured immediately prior to dosing, every hour for the first 6 hours post-dosing, then every 3 hours up to 12 hours post-dosing.
Vital signs, including SBP, DBP, RR, and HR were done at Screening, on each day immediately before and at 1, 3, and 6 hours after each SC injection, and at 24 hours after the last injection on Day 7. On Day 1, they were taken every hour for the first 6 hours, then every 3 hours up to 12 hours after the dose.

[4] = approximately 6 hours after Day 3 study medication

Asp-Arg-Val-Tyr-Ile-His-Pro [USB003]
CD3, Absolute, Mean at Baseline ([1]; 200 μg/kg): 1732.3 cells/μL
Subjects with shift, Absolute CD3, H-N (high to normal) ([1]; 200 μg/kg, Baseline to Day 8): 1
Subjects with shift, Absolute CD3, L-N (low to normal) ([1]; 200 μg/kg, Baseline to Day 8): —
Subjects with shift, Absolute CD3, N-H (normal to high) ([1]; 200 μg/kg, Baseline to Day 8): —
Subjects with shift, Absolute CD3, N-L (normal to low) ([1]; 200 μg/kg, Baseline to Day 8): —
Subjects with shift, Absolute CD3, H-N (high to normal) ([1]; 200 μg/kg, Baseline to Day 20): 1
Subjects with shift, Absolute CD3, L-N (low to normal) ([1]; 200 μg/kg, Baseline to Day 20): —
Subjects with shift, Absolute CD3, N-H (normal to high) ([1]; 200 μg/kg, Baseline to Day 20): —
Subjects with shift, Absolute CD3, N-L (normal to low) ([1]; 200 μg/kg, Baseline to Day 20): —
CD3, Absolute, Mean Change from Baseline ([1]; 200 μg/kg, Day 3): −115.8 cells/μL
CD3, Absolute, Mean Change from Baseline ([1]; 200 μg/kg, Day 5): 70.6 cells/μL
CD3, Absolute, Mean Change from Baseline ([1]; 200 μg/kg, Day 7): 53.9 cells/μL
CD3, Absolute, Mean Change from Baseline ([1]; 200 μg/kg, Day 8): −32.0 cells/μL
CD3, Absolute, Mean Change from Baseline ([1]; 200 μg/kg, Day 11): 122.0 cells/μL
CD3, Absolute, Mean Change from Baseline ([1]; 200 μg/kg, Day 14): 60.0 cells/μL
CD3, Absolute, Mean Change from Baseline ([1]; 200 μg/kg, Day 17): −121.1 cells/μL
CD3, Absolute, Mean Change from Baseline ([1]; 200 μg/kg, Day 20): −63.6 cells/μL
increase in CD3 (pan T cell marker) during study drug administration ([1]; 300 μg/kg/day, rapidly diminished after cessation of treatment): 15-20%
CD3, Absolute, Mean at Baseline ([1]; 300 μg/kg): 1285.5 cells/μL
Subjects with shift, Absolute CD3, H-N (high to normal) ([1]; 300 μg/kg, Baseline to Day 8): —
Subjects with shift, Absolute CD3, L-N (low to normal) ([1]; 300 μg/kg, Baseline to Day 8): —
Subjects with shift, Absolute CD3, N-H (normal to high) ([1]; 300 μg/kg, Baseline to Day 8): —
Subjects with shift, Absolute CD3, N-L (normal to low) ([1]; 300 μg/kg, Baseline to Day 8): —
Subjects with shift, Absolute CD3, H-N (high to normal) ([1]; 300 μg/kg, Baseline to Day 20): —
Subjects with shift, Absolute CD3, L-N (low to normal) ([1]; 300 μg/kg, Baseline to Day 20): —
Subjects with shift, Absolute CD3, N-H (normal to high) ([1]; 300 μg/kg, Baseline to Day 20): —
Subjects with shift, Absolute CD3, N-L (normal to low) ([1]; 300 μg/kg, Baseline to Day 20): —
CD3, Absolute, Mean Change from Baseline ([1]; 300 μg/kg, Day 3): 167.8 cells/μL
CD3, Absolute, Mean Change from Baseline ([1]; 300 μg/kg, Day 5): 159.8 cells/μL
CD3, Absolute, Mean Change from Baseline ([1]; 300 μg/kg, Day 7): 229.8 cells/μL
CD3, Absolute, Mean Change from Baseline ([1]; 300 μg/kg, Day 8): 67.1 cells/μL
CD3, Absolute, Mean Change from Baseline ([1]; 300 μg/kg, Day 11): −63.5 cells/μL
CD3, Absolute, Mean Change from Baseline ([1]; 300 μg/kg, Day 14): 0.3 cells/μL
CD3, Absolute, Mean Change from Baseline ([1]; 300 μg/kg, Day 17): −87.9 cells/μL
CD3, Absolute, Mean Change from Baseline ([1]; 300 μg/kg, Day 20): 56.9 cells/μL
CD4, Absolute, Mean at Baseline ([2]; 200 μg/kg): 1122.6 cells/μL
Subjects with shift, Absolute CD4, H-N (high to normal) ([2]; 200 μg/kg, Baseline to Day 8): 1
Subjects with shift, Absolute CD4, L-N (low to normal) ([2]; 200 μg/kg, Baseline to Day 8): —
Subjects with shift, Absolute CD4, N-H (normal to high) ([2]; 200 μg/kg, Baseline to Day 8): —
Subjects with shift, Absolute CD4, N-L (normal to low) ([2]; 200 μg/kg, Baseline to Day 8): —
Subjects with shift, Absolute CD4, H-N (high to normal) ([2]; 200 μg/kg, Baseline to Day 20): 1
Subjects with shift, Absolute CD4, L-N (low to normal) ([2]; 200 μg/kg, Baseline to Day 20): —
Subjects with shift, Absolute CD4, N-H (normal to high) ([2]; 200 μg/kg, Baseline to Day 20): —
Subjects with shift, Absolute CD4, N-L (normal to low) ([2]; 200 μg/kg, Baseline to Day 20): —
CD4, Absolute, Mean Change from Baseline ([2]; 200 μg/kg, Day 3): −88.0 cells/μL
CD4, Absolute, Mean Change from Baseline ([2]; 200 μg/kg, Day 5): 39.5 cells/μL
CD4, Absolute, Mean Change from Baseline ([2]; 200 μg/kg, Day 7): 53.6 cells/μL
CD4, Absolute, Mean Change from Baseline ([2]; 200 μg/kg, Day 8): −24.0 cells/μL
CD4, Absolute, Mean Change from Baseline ([2]; 200 μg/kg, Day 11): 82.5 cells/μL
CD4, Absolute, Mean Change from Baseline ([2]; 200 μg/kg, Day 14): 12.1 cells/μL
CD4, Absolute, Mean Change from Baseline ([2]; 200 μg/kg, Day 17): −70.5 cells/μL
CD4, Absolute, Mean Change from Baseline ([2]; 200 μg/kg, Day 20): −58.0 cells/μL
CD4, Absolute, Mean at Baseline ([2]; 300 μg/kg): 734.4 cells/μL
Subjects with shift, Absolute CD4, H-N (high to normal) ([2]; 300 μg/kg, Baseline to Day 8): —
Subjects with shift, Absolute CD4, L-N (low to normal) ([2]; 300 μg/kg, Baseline to Day 8): 1
Subjects with shift, Absolute CD4, N-H (normal to high) ([2]; 300 μg/kg, Baseline to Day 8): —
Subjects with shift, Absolute CD4, N-L (normal to low) ([2]; 300 μg/kg, Baseline to Day 8): —
Subjects with shift, Absolute CD4, H-N (high to normal) ([2]; 300 μg/kg, Baseline to Day 20): —
Subjects with shift, Absolute CD4, L-N (low to normal) ([2]; 300 μg/kg, Baseline to Day 20): —
Subjects with shift, Absolute CD4, N-H (normal to high) ([2]; 300 μg/kg, Baseline to Day 20): —
Subjects with shift, Absolute CD4, N-L (normal to low) ([2]; 300 μg/kg, Baseline to Day 20): 1
CD4, Absolute, Mean Change from Baseline ([2]; 300 μg/kg, Day 3): 109.6 cells/μL
CD4, Absolute, Mean Change from Baseline ([2]; 300 μg/kg, Day 5): 108.1 cells/μL
CD4, Absolute, Mean Change from Baseline ([2]; 300 μg/kg, Day 7): 129.3 cells/μL
CD4, Absolute, Mean Change from Baseline ([2]; 300 μg/kg, Day 8): 31.1 cells/μL
CD4, Absolute, Mean Change from Baseline ([2]; 300 μg/kg, Day 11): −29.3 cells/μL
CD4, Absolute, Mean Change from Baseline ([2]; 300 μg/kg, Day 14): 9.7 cells/μL
CD4, Absolute, Mean Change from Baseline ([2]; 300 μg/kg, Day 17): −40.0 cells/μL
CD4, Absolute, Mean Change from Baseline ([2]; 300 μg/kg, Day 20): 48.9 cells/μL
change from baseline in mean body temperatures ([3]; 300 μg/kg dose group compared to 200 μg/kg, especially 6-hour post-dose, Study Day 3): clearly notable increase
oral body temperature, Subject 042 ([3]; Day 1, 4-hour post-dose): 37.8 °C
oral body temperature, Subject 042 ([3]; Day 1, 9-hour post-dose): 38.1 °C
oral body temperature, Subject 042 ([3]; Day 1, one hour after first dose): 37.4 °C
oral body temperature, Subject 042 ([3]; Day 2, 6-hour-post-dose): 38.7 °C
oral body temperature, Subject 042 ([3]; Day 2 pre-dose): 37.4 °C
oral body temperature, Subject 046 ([3]; Day 2 pre-dose): 35.9 °C
oral body temperature, Subject 046 ([3]; Day 3, 6-hour post-dose): 37.9 °C
oral body temperature, Subject 046 ([3]; Day 4 pre-dose): 36.8 °C
oral body temperature, Subject 053 ([3]; Day 4 pre-dose): 36.4 °C
oral body temperature, Subject 055 ([3]; Day 4 pre-dose): 37.1 °C
oral body temperature, Subject 053 ([3]; Day 7 pre-dose): 37.0 °C
oral body temperature, Subject 042 ([3]; Day 8): 36.9 °C
oral body temperature, Subject 053 [3, 4]: 37.8 °C
oral body temperature, Subject 055 [3, 4]: 38.0 °C
oral body temperature, Subject 053 ([3]; approximately 6 hours after Day 6 study medication): 37.9 °C
oral body temperature, Subject 046 ([3]; approximately 7 hours and 45 minutes after first dosing): 37.8 °C
oral body temperature, Subject 046 ([3]; approximately 14 hours after the first dose): 38.0 °C
oral body temperature, Subject 046 ([3]; one hour after first dose): 37.3 °C
changes from baseline for the mean RR ([3]; all measured time points): no clinically meaningful changes
mean change in pulse rate ([3]; by 3-hour post-dose in all treatment groups, continuing in the USB003 groups at last vital sign of the day): mildly notable increase
change in mean SBP and DBP compared to baseline ([3]; no apparent difference in dose groups): mild decrease
